The source of these data is patent US8865701B2, “Spiropyrrolidine beta-secretase inhibitors for the treatment of alzheimer'S disease” (Merck Sharp & Dohme Corp., priority 2009, dated 2014).

BACE 1, sequence (P56817 46-457): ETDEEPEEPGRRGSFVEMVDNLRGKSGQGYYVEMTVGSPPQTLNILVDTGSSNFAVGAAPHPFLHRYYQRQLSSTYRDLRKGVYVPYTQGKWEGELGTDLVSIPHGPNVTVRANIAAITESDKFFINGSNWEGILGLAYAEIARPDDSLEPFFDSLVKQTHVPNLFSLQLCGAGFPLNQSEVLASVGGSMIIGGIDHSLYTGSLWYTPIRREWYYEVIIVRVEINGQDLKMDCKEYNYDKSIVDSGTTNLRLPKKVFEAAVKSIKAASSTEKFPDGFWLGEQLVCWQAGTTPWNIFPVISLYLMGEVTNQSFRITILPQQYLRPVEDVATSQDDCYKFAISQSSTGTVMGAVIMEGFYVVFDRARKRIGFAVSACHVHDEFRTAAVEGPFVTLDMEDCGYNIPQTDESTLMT

The assay deals with BACE 1 (Homo sapiens (Human), UniProt P56817). Description: ECL assay of beta-secretase (BACE) enzyme inhibition. Type of assay: biochemical. To be noted: homogeneous end point ECL assay, biotinylated BACE substrate, soluble human enzyme, pH 6.5, rt. As to the method:
Enzyme inhibition is determined as follows.
ECL Assay: A homogeneous end point electrochemiluminescence (ECL) assay is performed using a biotinylated BACE substrate. The Km of the substrate is approximated at 50 μM. A typical reaction contains approximately 0.6 nM enzyme, 0.25 μM of the substrate, and buffer (50 mM Pipes, pH 6.5, 0.1 mg/ml BSA, 0.2% CHAPS, 15 mM EDTA and 1 mM deferoxamine) in a total reaction volume of 100 μl. The reaction proceeds for 1-2 hrs and is then stopped by the addition of 150 μL of a quench cocktail solution (25 μl M Tris-HCl, pH 8.0, 50 μl INC buffer (2% BSA, 0.2% Tween-20 and 0.05% sodium azide diluted in Phosphate buffered saline (PBS) plus 75 μL PBS), containing Streptavidin coated magnetic beads and ruthenylated antibody which specifically recognizes the C-terminal residue of the product. The samples are subjected to M-384 (Igen Inc., Gaithersburg, Md.) analysis. Under these conditions, less than 10% of substrate is processed by BACE 1. The enzyme used in these studies is soluble (transmembrane domain and cytoplasmic extension excluded) human protein produced in a baculovirus expression system. To measure the inhibitory potency for compounds, 10 concentrations of inhibitors are prepared starting from 200 μM with three fold series dilution. Solutions of the inhibitor in DMSO are included in the reaction mixture (final DMSO concentration is 10%). All experiments are conducted at rt using the standard reaction conditions described above. To determine the IC50 of the compound, a four parameter equation is used for curve fitting. The errors in reproducing the dissociation constants are typically less than two-fold.
In general, IC50 refers to the concentration needed to halve the response being measured. Turning to `COc1cccc2c1OCC[C@]21CNC[C@H]1C(=O)N1CC[C@@H](c2ccccc2)C[C@H]1C1CCCC(F)(F)C1` (stereo partly drawn) [Example 3, [(4R,4′S)-8-methoxy-2,3-dihydrospiro[chromene-4,3′-pyrrolidin]-4′-yl][(2S,4R)-2-(3,3-difluorocyclohexyl)-4-phenylpiperidin-1-yl]methanone], the midpoint of inhibition, the IC50, lay at 2190 nM.
Next, `CC(C)[C@@H]1C[C@H](c2ccccc2)CCN1C(=O)[C@@H]1CNC[C@]12CCCc1ccccc12` [Example 7, (1R,4′S)-3,4-dihydro-2H-spiro[naphthalene-1,3′-pyrrolidin]-4′-yl[(2S,4R)-4-phenyl-2-(propan-2-yl)piperidin-1-yl]methanone]: 22000 nM.
For `COC(C)(C)C1CCCCN1C(=O)[C@@H]1CNC[C@@]12CCCc1ccccc12` (stereo partly drawn) [Example 10, (1S,4′S)-3,4-dihydro-2H-spiro[naphthalene-1,3′-pyrrolidin]-4′-yl[2-(2-methoxypropan-2-yl)piperidin-1-yl]methanone] the value was 20000 nM; for `O=C([C@@H]1CNC[C@]12CCCc1cc(Cl)ccc12)N1CCC(c2ccccc2)CC1` [Example 19, [(1R,4′S)-6-chloro-3,4-dihydro-2H-spiro[naphthalene-1,3′-pyrrolidin]-4′-yl](4-phenylpiperidin-1-yl)methanone], 920 nM; for `O=C([C@@H]1CNC[C@]12CCc1ccccc12)N1CC[C@@H](c2ccccc2)C[C@H]1c1ccccc1` [Example 21, (1R,4′S)-2,3-dihydrospiro[indene-1,3′-pyrrolidin]-4′-yl[(2S,4R)-2,4-diphenylpiperidin-1-yl]methanone], 71 nM.
Next, `O=C([C@@H]1CNC[C@]12CCc1cc(Br)ccc12)N1CCC(c2ccccc2)CC1` [Example 30, [(1R,4′S)-5-bromo-2,3-dihydrospiro[indene-1,3′-pyrrolidin]-4′-yl](4-phenylpiperidin-1-yl)methanone]: 14000 nM.
For `CC(C)c1cccc2c1CCC[C@]21CNC[C@H]1C(=O)N1CCC(c2ccccc2)CC1` [Example 31, (4-phenylpiperidin-1-yl)[(1R,4′S)-5-(propan-2-yl)-3,4-dihydro-2H-spiro[naphthalene-1,3′-pyrrolidin]-4′-yl]methanone], the half-inhibitory concentration (IC50) is 24 nM.
With `O=C([C@@H]1CNC[C@]12CCSc1ccccc12)N1CCC(c2ccccc2)CC1` [Example 38, (3R,4S)-2′,3′-dihydrospiro[pyrrolidine-3,4′-thiochromen]-4-yl(4-phenylpiperidin-1-yl)methanone], half-maximal inhibition (IC50) required 12000 nM.
Next, `CCc1ccc2c(c1)CCC[C@]21CNC[C@H]1C(=O)N1CCC(c2ccccc2)CC1` [Example 44, [(1R,4′S)-6-ethyl-3,4-dihydro-2H-spiro[naphthalene-1,3′-pyrrolidin]-4′-yl](4-phenylpiperidin-1-yl)methanone]: 19000 nM; `O=C([C@@H]1CNC[C@]12CCCc1nc(Cl)ccc12)N1CCC2(C=Cc3ccccc32)CC1c1ccccc1` (stereo partly drawn) [Example 77, [(3R,4S)-2′-chloro-7′,8′-dihydro-6′H-spiro[pyrrolidine-3,5′-quinolin]-4-yl](2′-phenyl-1′H-spiro[indene-1,4′-piperidin]-1′-yl)methanone]: 200 nM; `Cc1cccc(C2CC(c3ccccc3)CCN2C(=O)[C@@H]2CNC[C@]23CCCc2nc(Cl)ccc23)c1` (stereo partly drawn) [Example 100, [(3R,4S)-2′-chloro-7′,8′-dihydro-6′H-spiro[pyrrolidine-3,5′-quinolin]-4-yl][2-(3-methylphenyl)-4-phenylpiperidin-1-yl]methanone]: 450 nM.
